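GI50 marks 50% less growth. TGI denotes the concentration required for complete inhibition of growth.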
Experiments:
Test in all cases: NCI anticancer screen, dose series, 384-well format
M14 melanoma = system: M14 melanoma
CCRF-CEM leukemia = system: CCRF-CEM leukemia
SF-268 CNS = system: SF-268 CNS
SK-OV-3 ovarian = system: SK-OV-3 ovarian
HOP-92 NSCLC = system: HOP-92 NSCLC
MCF7 breast = system: MCF7 breast
DU-145 prostate = system: DU-145 prostate
MDA-MB-468 breast = system: MDA-MB-468 breast
SNB-75 CNS = system: SNB-75 CNS
HL-60(TB) leukemia = system: HL-60(TB) leukemia
KM12 colon = system: KM12 colon
K-562 leukemia = system: K-562 leukemia
NCI-H460 NSCLC = system: NCI-H460 NSCLC
MOLT-4 leukemia = system: MOLT-4 leukemia
OVCAR-4 ovarian = system: OVCAR-4 ovarian
TK-10 renal = system: TK-10 renal
SF-539 CNS = system: SF-539 CNS
HCT-15 colon = system: HCT-15 colon
EKVX NSCLC = system: EKVX NSCLC
UACC-62 melanoma = system: UACC-62 melanoma
MDA-MB-231 breast = system: MDA-MB-231 breast
RPMI-8226 leukemia = system: RPMI-8226 leukemia
SF-295 CNS = system: SF-295 CNS
A549 NSCLC = system: A549 NSCLC
HOP-62 NSCLC = system: HOP-62 NSCLC
HCT-116 colon = system: HCT-116 colon
IGROV1 ovarian = system: IGROV1 ovarian
OVCAR-3 ovarian = system: OVCAR-3 ovarian
BT-549 breast = system: BT-549 breast
SNB-19 CNS = system: SNB-19 CNS
SR leukemia = system: SR leukemia
RXF 393 renal = system: RXF 393 renal
NCI/ADR-RES ovarian = system: NCI/ADR-RES ovarian
UACC-257 melanoma = system: UACC-257 melanoma
PC-3 prostate = system: PC-3 prostate
MALME-3M melanoma = system: MALME-3M melanoma
NCI-H226 lung = system: NCI-H226 lung
MDA-MB-435 melanoma = system: MDA-MB-435 melanoma
OVCAR-8 ovarian = system: OVCAR-8 ovarian
CAKI-1 renal = system: CAKI-1 renal
NCI-H23 lung = system: NCI-H23 lung
T-47D breast = system: T-47D breast
LOX IMVI melanoma = system: LOX IMVI melanoma
NCI-H322M lung = system: NCI-H322M lung
SK-MEL-5 melanoma = system: SK-MEL-5 melanoma
HS 578T breast = system: HS 578T breast
SN12C renal = system: SN12C renal
COLO 205 colon = system: COLO 205 colon
HCC-2998 colon = system: HCC-2998 colon
U251 glioblastoma = system: U251 glioblastoma
HT29 colon = system: HT29 colon
ACHN renal = system: ACHN renal
NCI-H522 lung = system: NCI-H522 lung
UO-31 renal = system: UO-31 renal
SW-620 colon = system: SW-620 colon
786-0 renal = system: 786-0 renal
A498 renal = system: A498 renal
SK-MEL-28 melanoma = system: SK-MEL-28 melanoma

O=C(O)CSc1cc(NS(=O)(=O)c2ccc(Br)cc2)c2ccccc2c1O was tested, and the GI50 (M14 melanoma) was 3.11 µM, the TGI (M14 melanoma) was 7.41 µM and the GI50 (CCRF-CEM leukemia) was 2.02 µM. For the same compound, the TGI (CCRF-CEM leukemia) was 3.45 µM, the GI50 (SF-268 CNS) was 2.4 µM and the TGI (SF-268 CNS) was 6.02 µM. For the same compound, the GI50 (SK-OV-3 ovarian) was 5.22 µM, the TGI (SK-OV-3 ovarian) was 16.6 µM and the GI50 (HOP-92 NSCLC) was 2.24 µM. For the same compound, the TGI (HOP-92 NSCLC) was 4.57 µM, the GI50 (MCF7 breast) was 1.62 µM and the TGI (MCF7 breast) was 3.15 µM. For the same compound, the GI50 (DU-145 prostate) was 2.37 µM, the TGI (DU-145 prostate) was 5.24 µM and the GI50 (MDA-MB-468 breast) was 1.39 µM. It also gave a TGI (MDA-MB-468 breast) of 2.7 µM, a GI50 (SNB-75 CNS) of 2.19 µM and a TGI (SNB-75 CNS) of 4.5 µM. For the same compound, the GI50 (HL-60(TB) leukemia) was 1.82 µM, the TGI (HL-60(TB) leukemia) was 3.22 µM and the GI50 (KM12 colon) was 4.91 µM. The TGI (KM12 colon) was 16.2 µM, the GI50 (K-562 leukemia) was 1.39 µM and the TGI (K-562 leukemia) was 2.71 µM. For the same compound, the GI50 (NCI-H460 NSCLC) was 13.5 µM, the TGI (NCI-H460 NSCLC) was 26.3 µM and the GI50 (MOLT-4 leukemia) was 1.96 µM. For the same compound, the TGI (MOLT-4 leukemia) was 3.39 µM, the GI50 (OVCAR-4 ovarian) was 1.73 µM and the TGI (OVCAR-4 ovarian) was 3.12 µM. The GI50 (TK-10 renal) was 14.2 µM, the TGI (TK-10 renal) was 27.2 µM and the GI50 (SF-539 CNS) was 2.2 µM. It also gave a TGI (SF-539 CNS) of 3.72 µM, a GI50 (HCT-15 colon) of 10.6 µM and a TGI (HCT-15 colon) of 22.4 µM. It also gave a GI50 (EKVX NSCLC) of 1.92 µM, a TGI (EKVX NSCLC) of 3.63 µM and a GI50 (UACC-62 melanoma) of 1.91 µM. The TGI (UACC-62 melanoma) was 3.33 µM, the GI50 (MDA-MB-231 breast) was 1.89 µM and the TGI (MDA-MB-231 breast) was 3.72 µM. The GI50 (RPMI-8226 leukemia) was 1.63 µM, the TGI (RPMI-8226 leukemia) was 3.37 µM and the GI50 (SF-295 CNS) was 6.61 µM. The TGI (SF-295 CNS) was 19 µM, the GI50 (A549 NSCLC) was 11.6 µM and the TGI (A549 NSCLC) was 23.8 µM. It also gave a GI50 (HOP-62 NSCLC) of 3.02 µM, a TGI (HOP-62 NSCLC) of 8.45 µM and a GI50 (HCT-116 colon) of 2.19 µM. The TGI (HCT-116 colon) was 4.15 µM, the GI50 (IGROV1 ovarian) was 2.69 µM and the TGI (IGROV1 ovarian) was 6.51 µM. For the same compound, the GI50 (OVCAR-3 ovarian) was 0.404 µM, the TGI (OVCAR-3 ovarian) was 1.69 µM and the GI50 (BT-549 breast) was 2.93 µM. For the same compound, the TGI (BT-549 breast) was 7.45 µM, the GI50 (SNB-19 CNS) was 5.03 µM and the TGI (SNB-19 CNS) was 15.4 µM. The GI50 (SR leukemia) was 2.6 µM, the TGI (SR leukemia) was 4.08 µM and the GI50 (RXF 393 renal) was 1.75 µM. For the same compound, the TGI (RXF 393 renal) was 3.44 µM, the GI50 (NCI/ADR-RES ovarian) was 2.22 µM and the TGI (NCI/ADR-RES ovarian) was 4.79 µM. It also gave a GI50 (UACC-257 melanoma) of 1.65 µM, a TGI (UACC-257 melanoma) of 3.03 µM and a GI50 (PC-3 prostate) of 2.38 µM. For the same compound, the TGI (PC-3 prostate) was 5.77 µM, the GI50 (MALME-3M melanoma) was 1.95 µM and the TGI (MALME-3M melanoma) was 3.38 µM. The GI50 (NCI-H226 lung) was 6.7 µM, the TGI (NCI-H226 lung) was 18.5 µM and the GI50 (MDA-MB-435 melanoma) was 2 µM. It also gave a TGI (MDA-MB-435 melanoma) of 3.43 µM, a GI50 (OVCAR-8 ovarian) of 1.92 µM and a TGI (OVCAR-8 ovarian) of 3.97 µM. For the same compound, the GI50 (CAKI-1 renal) was 10.9 µM, the TGI (CAKI-1 renal) was 22.8 µM and the GI50 (NCI-H23 lung) was 1.82 µM. It also gave a TGI (NCI-H23 lung) of 3.94 µM, a GI50 (T-47D breast) of 2.61 µM and a TGI (T-47D breast) of 5.11 µM. For the same compound, the GI50 (LOX IMVI melanoma) was 1.79 µM, the TGI (LOX IMVI melanoma) was 3.26 µM and the GI50 (NCI-H322M lung) was 16.2 µM. For the same compound, the TGI (NCI-H322M lung) was 29.7 µM, the GI50 (SK-MEL-5 melanoma) was 1.98 µM and the TGI (SK-MEL-5 melanoma) was 3.52 µM. It also gave a GI50 (HS 578T breast) of 1.63 µM, a TGI (HS 578T breast) of 3.04 µM and a GI50 (SN12C renal) of 2.03 µM. The TGI (SN12C renal) was 3.64 µM, the GI50 (COLO 205 colon) was 3.12 µM and the TGI (COLO 205 colon) was 9.58 µM. For the same compound, the GI50 (HCC-2998 colon) was 11.7 µM, the TGI (HCC-2998 colon) was 23.9 µM and the GI50 (U251 glioblastoma) was 2.55 µM. For the same compound, the TGI (U251 glioblastoma) was 6.16 µM, the GI50 (HT29 colon) was 3.94 µM and the TGI (HT29 colon) was 11.9 µM. It also gave a GI50 (ACHN renal) of 4.15 µM, a TGI (ACHN renal) of 13.6 µM and a GI50 (NCI-H522 lung) of 7.47 µM. It also gave a TGI (NCI-H522 lung) of 20 µM, a GI50 (UO-31 renal) of 2.05 µM and a TGI (UO-31 renal) of 3.91 µM. For the same compound, the GI50 (SW-620 colon) was 2.42 µM, the TGI (SW-620 colon) was 6.09 µM and the GI50 ([…]-0 renal) was 6.17 µM. It also gave a TGI (786-0 renal) of 18.3 µM, a GI50 (A498 renal) of 16.9 µM and a TGI (A498 renal) of 30.6 µM. For the same compound, the GI50 (SK-MEL-28 melanoma) was 2.25 µM and the TGI (SK-MEL-28 melanoma) was 4.05 µM.

From PubChem BioAssay (NCI)
